In patent publication US20070004680A1, “Compositions and methods for modulating gated ion channels” (PainCeptor Pharma Corporation, priority 2004, published 2007):

Tests used:
ASIC3 = target: T1, ASIC3 (Rattus norvegicus, UniProt O35240); experiment: whole cell patch clamp electrophysiology, ASIC3; assay type: cell-based; details: 1 μM compound; pH 6.5 and pH 5.0; compared with the corresponding 5-vinyl esters
T1 construct: expressed in transfected cells
T1 sequence (O35240 1-533): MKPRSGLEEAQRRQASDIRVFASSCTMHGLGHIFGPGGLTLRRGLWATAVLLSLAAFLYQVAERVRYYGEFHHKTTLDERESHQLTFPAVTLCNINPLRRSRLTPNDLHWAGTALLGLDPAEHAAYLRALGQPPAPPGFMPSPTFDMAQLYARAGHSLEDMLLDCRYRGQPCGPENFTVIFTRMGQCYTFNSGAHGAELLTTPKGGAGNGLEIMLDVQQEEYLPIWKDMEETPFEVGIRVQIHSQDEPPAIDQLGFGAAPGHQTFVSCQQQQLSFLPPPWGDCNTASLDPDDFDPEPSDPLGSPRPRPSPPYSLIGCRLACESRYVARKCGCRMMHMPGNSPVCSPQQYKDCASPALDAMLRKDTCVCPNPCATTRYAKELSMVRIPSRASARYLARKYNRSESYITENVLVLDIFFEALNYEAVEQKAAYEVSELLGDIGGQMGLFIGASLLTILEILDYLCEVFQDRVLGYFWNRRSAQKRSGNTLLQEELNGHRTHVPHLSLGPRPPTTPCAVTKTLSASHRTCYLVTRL
Method: (§1) Another example of an in vitro assessment method consists of using mammalian heterologous expression systems, which are known to the skilled in the art, and include a variety of mammalian cell lines such as COS, HEK, e.g., HEK293and/or CHO, cells. Cell lines are transfected with gated ion channel(s) and used to perform electrophysiology as follows:
(§2) All experiments are performed at room temperature (20-25° C.) in voltage clamp using conventional whole cell patch clamp methods (Neher, E., et al. (1978) Pfluegers Arch 375:219-228).
(§3) The amplifier used is the EPC-9 (HEKA-electronics, Lambrect, Germany) run by a Macintosh G3 computer via an ITC-16 interface. Experimental conditions are set with the Pulse-software accompanying the amplifier. Data is low pass filtered and sampled directly to hard-disk at a rate of 3 times the cut-off frequency.
(§4) Pipettes are pulled from borosilicate glass using a horizontal electrode puller (Zeitz-lnstrumente, Augsburg, Germany). The pipette resistances are 2-3 MOhms in the salt solutions used in these experiments. The pipette electrode is a chloridized silver wire, and the reference is a silver chloride pellet electrode (In Vivo Metric, Healdsburg, USA) fixed to the experimental chamber. The electrodes are zeroed with the open pipette in the bath just prior to sealing.
Coverslips with the cells are transferred to a 15 μl experimental chamber mounted on the stage of an inverted microscope (IMT-2, Olympus) supplied with Nomarski optics. Cells are continuously superfused with extracellular saline at a rate of 2.5 ml/min. After giga-seal formation, the whole cell configuration is attained by suction. The cells are held at a holding voltage of −60 mV and at the start of each experiment the current is continuously measured for 45 s to ensure a stable baseline. Solutions of low pH (<7) are delivered to the chamber through a custom-made gravity-driven flowpipe, the tip of which is placed approximately 50 μm from the cell. Application is triggered when the tubing connected to the flowpipe is compressed by a valve controlled by the Pulse-software. Initially, low pH (in general, pH 6.5) is applied for 1 s every 45 s. The sample interval during application is 550 μs. After stable responses are obtained, the extracellular saline as well as the low-pH solution are switched to solutions containing the compound to be tested. The compound is present until responses of a repeatable amplitude are achieved. Current amplitudes are measured at the peak of the responses, and effect of the compounds is calculated as the amplitude at compound equilibrium divided by the amplitude of the current evoked by the pulse just before the compound was included. […]

ASIC1a [1] = target: T2, ASIC1a (Rattus norvegicus, UniProt P55926); experiment: whole cell patch clamp electrophysiology, ASIC1a; assay type: cell-based; details: 1 μM compound; pH 6.5 and pH 5.0; compared with the corresponding 5-vinyl esters
T2 construct: expressed in transfected cells; host or cells: HEK cells according to b213
T2 sequence (P55926 1-526): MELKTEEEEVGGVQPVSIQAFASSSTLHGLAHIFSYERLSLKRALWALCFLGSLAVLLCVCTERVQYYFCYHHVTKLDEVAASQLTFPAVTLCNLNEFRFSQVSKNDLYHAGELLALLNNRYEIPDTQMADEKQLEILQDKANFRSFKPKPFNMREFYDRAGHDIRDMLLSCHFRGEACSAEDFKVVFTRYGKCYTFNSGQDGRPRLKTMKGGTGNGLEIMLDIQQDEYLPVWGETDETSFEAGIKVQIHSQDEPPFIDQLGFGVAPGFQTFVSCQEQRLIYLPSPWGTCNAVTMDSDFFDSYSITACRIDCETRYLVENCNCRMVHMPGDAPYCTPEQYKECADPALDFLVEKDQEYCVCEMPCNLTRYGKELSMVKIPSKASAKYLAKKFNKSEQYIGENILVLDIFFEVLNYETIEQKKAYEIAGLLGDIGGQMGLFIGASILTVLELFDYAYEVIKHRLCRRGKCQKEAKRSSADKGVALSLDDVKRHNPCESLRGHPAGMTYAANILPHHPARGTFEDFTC
Method: as §1, §2, §3, §4
Coverslips with the cells are transferred to a 15 μl experimental chamber mounted on the stage of an inverted microscope (IMT-2, Olympus) supplied with Nomarski optics. Cells are continuously superfused with extracellular saline at a rate of 2.5 ml/min. After giga-seal formation, the whole cell configuration is attained by suction. The cells are held at a holding voltage of −60 mV and at the start of each experiment the current is continuously measured for 45 s to ensure a stable baseline. Solutions of low pH (<7) are delivered to the chamber through a custom-made gravity-driven flowpipe, the tip of which is placed approximately 50 μm from the cell. Application is triggered when the tubing connected to the flowpipe is compressed by a valve controlled by the Pulse-software. Initially, low pH (in general, pH 6.5) is applied for 1 s every 45 s. The sample interval during application is 550 μs. After stable responses are obtained, the extracellular saline as well as the low-pH solution are switched to solutions containing the compound to be tested. The compound is present until responses of a repeatable amplitude are achieved. Current amplitudes are measured at the peak of the responses, and effect of the compounds is calculated as the amplitude at compound equilibrium divided by the amplitude of the current evoked by the pulse just before the compound was included.
The following salt solutions are used: extracellular solution (mM): NaCl (140), KCl (4), CaCl2 (2), MgCl2 (4), HEPES (10, pH 7.4); intracellular solution (mM): KCl (120), KOH (31), MgCl2 (1.785), […] (10), HEPES (10, pH 7.2). In general, compounds for testing are dissolved in 50% DMSO at 500 fold the highest concentration used.
The cDNA for ASIC1a and ASIC3 can be cloned from rat poly(A)^+ mRNA and put into expression vectors according to Hesselager et al. (J Biol Chem. 279(12):11006-15 2004). All constructs are expressed in CHO-K1 cells (ATCC no. CCL61). CHO-K1 cells are cultured at 37° C. in a humidified atmosphere of 5% CO2 and 95% air and passaged twice every week. The cells are maintained in DMEM (10 mM HEPES, 2 mM glutamax) supplemented with 10% fetal bovine serum and 2 mM L-proline (Life Technologies). […]

Male Sprague-Dawley rats = experiment: Formalin test (flinching behaviour); assay type: in vivo, rat; details: 10 mg/kg i.v. 10 min prior to formalin in the hind limb; compared with vehicle; n=8
Method: Male Sprague-Dawley rats (body weight, 180-300 g) are housed together in groups of four animals under standard conditions with unrestricted access to food and water. Rats are housed in the room in which the testing procedure is performed to minimize any stress response to novel environmental cues. All experiments are conducted according to the ethical guidelines for investigations of experimental pain in conscious animals (Zimmerman, 1983).
Separate groups of rats are used for the different experiments such that each animal is used on one occasion only. All experiments for a given compound are performed using age matched animals in an attempt to avoid variability between experiments. Prior to initiation of the formalin test, 4 rats are habituated in separate testing cages for 15-20 min. […] On the basis of the response pattern, two distinct phases of nociceptive behavior are observed, characterized by flinching of the affected paw and scored (Blackburn-Munro et al., Eur J Pharmacol. 2002 Jun. 12;445(3):231-8). […]
All data is analysed using Sigmastat 2.03 statistical software (Jandel Scientific GmbH, Germany) and expressed as mean±S.E.M. Two Way Repeated Measures Analysis of Variance (Two Way RM ANOVA) is used to analyse formalin test data and where applicable, this is followed by post-hoc analysis using Bonferroni's t-test to allow comparisons between groups. […]

ASIC1a [2] = target: T3, ASIC1a (Homo sapiens, UniProt P78348); experiment: FLIPR calcium assay (MES-induced calcium response), ASIC1a expressing HEK293 cells; assay type: cell-based; details: HEK293; at 1 μM, HEK cells, FLIPR
T3 construct: host or cells: HEK293
T3 sequence (P78348 1-528): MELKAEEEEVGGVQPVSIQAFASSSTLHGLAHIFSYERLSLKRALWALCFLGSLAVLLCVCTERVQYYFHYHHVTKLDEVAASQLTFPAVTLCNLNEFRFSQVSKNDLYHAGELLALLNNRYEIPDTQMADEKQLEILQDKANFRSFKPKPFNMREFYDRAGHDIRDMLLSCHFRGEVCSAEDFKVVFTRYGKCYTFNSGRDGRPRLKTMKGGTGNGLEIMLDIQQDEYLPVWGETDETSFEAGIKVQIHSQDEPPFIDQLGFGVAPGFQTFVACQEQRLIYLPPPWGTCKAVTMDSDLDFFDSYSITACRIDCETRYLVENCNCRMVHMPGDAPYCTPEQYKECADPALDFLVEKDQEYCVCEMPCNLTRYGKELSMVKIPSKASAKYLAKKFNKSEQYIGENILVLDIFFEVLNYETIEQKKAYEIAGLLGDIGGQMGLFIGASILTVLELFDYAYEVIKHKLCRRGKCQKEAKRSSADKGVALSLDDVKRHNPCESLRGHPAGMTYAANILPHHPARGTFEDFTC
Method: ASIC1a expressing HEK293 cells are grown in culture medium (DMEM with 10% FBS), in polystyrene culture flasks ([…]) at 37° C. in a humidified atmosphere of 5% CO2. Confluency of cells should be 80-90% on day of plating. Cells are rinsed with 10 ml of PBS and cells are re-suspended by addition of culture medium and trituration with a 25 ml pipette.
The cells are seeded at a density of approximately 1×10^6 cells/ml (100 μl/well) in black-walled, clear bottom, 96-well plates pre-treated with 10 mg/l poly-D-lysin (75 μl/well for ≧30 min). Plated cells were allowed to proliferate for 24 h before loading with dye.
Fluo-4/AM (1 mg, Molecular Probes) is added 912 μl DMSO. The Fluo-4/AM stock solution (1 mM) is diluted with culture medium to a final concentration of 2 μM.
The culture medium is aspirated from the wells, and 50 μl of the Fluo-4/AM loading solution is added to each well. The cells are incubated at 37° C. for 30 min.
After the loading period, the loading solution is aspirated and the cells are washed twice with 100 μl modified FLIPR medium (145 mM NaCl, 5 mM KCl, 5 mM CaCl2, 1 mM MgCl2, 10 mM HEPES, pH 7.4) to remove extracellular dye. Following the second wash, 100 μl modified FLIPR medium is added to each well and the fluorescence is measured in FLIPR.
Temperature: Room temperature (20-22° C.)
First addition: 50 μl test solution at a rate of 30 μl/sec and a starting height of […]
Second addition: 50 μl MES solution (20 mM, 5 mM final concentration) at a rate of 35 μl/sec and a starting height of 150 μl.
Reading intervals: pre-incubation—10 sec×7 and 3 sec×3 antagonist phase—3 sec×17 and 10 sec×12
Addition plates (compound test plate and MES plate) are placed on the right and left positions in the FLIPR tray, respectively. Cell plates are placed in the middle position and the ASIC1a program is effectuated. FLIPR will then take the appropriate measurements in accordance with the interval settings above. Fluorescence obtained after stimulation is corrected for the mean basal fluorescence (in modified FLIPR medium). […]

SMILES | difference in current between control ASICs and ASICs with compound (ASIC3) (ASIC3) | difference in current between control ASICs and ASICs with compound (ASIC1a) (ASIC1a [1]) | flinching behaviour in Formalin test (Male Sprague-Dawley rats) | inhibition at 1 µM (ASIC1a [2]) [%]
CCC1CN2CCC1CC2C(OC(=O)CC(C)(C)C)c1ccnc2ccc(OC)cc12 (stereo not drawn) [3,3-dimethyl-butyric acid (5-ethyl-1-aza-bicyclo[2.2.2]oct-2-yl)-(6-methoxy-quinolin-4-yl)-methyl ester] | larger difference in current | larger difference in current |  | 
C=CC1CN2CCC1CC2[C@H](OC(=O)CCC1CCCC1)c1ccnc2ccccc12 (stereo partly drawn) [B] |  |  | attenuated flinching behaviour | 
C=CC1CN2CCC1CC2[C@H](OC(=O)CCC1CCCC1)c1ccnc2ccccc12 (stereo partly drawn) [drawing 27] |  |  |  | 30 to 45
CCCCC(=O)OC(c1ccnc2ccc(OC)cc12)C1CC2CCN1CC2CC (stereo not drawn) [pentanoic acid (5-ethyl-1-aza-bicyclo[2.2.2]oct-2-yl)-(6-methoxy-quinolin-4-yl)-methyl ester] | larger difference in current | larger difference in current |  | 
